# Experimental data taken from patent US20200268768A1, “CENICRIVIROC COMBINATION THERAPY FOR THE TREATMENT OF FIBROSIS” (Tobira Therapeutics, Inc., priority 2015, published 2020).
# Counter-ions that a name gives are not always drawn.
# Tests used:
# [1] = Solubility of cenicriviroc mesylate; format: physicochemical
# [2] = tested on: adults with CCR5 tropic HIV-1; experiment: Study 202 post-hoc APRI and FIB-4 fibrosis index scores; format: in vivo, human
# Experimental: APRI and FIB-4 scores were calculated. Change in score category from baseline (BL) to Weeks 24 and 48 was assessed in patients with non-missing data. Correlations between changes from BL in APRI and FIB-4 scores, and MCP-1 (CCR2 ligand) and sCD14 (inflammatory biomarker) levels were evaluated.
# [3] = tested on: HIV-1 infected adult subjects; experiment: Study 202 biomarkers of inflammation; format: in vivo, human; conditions: EFV 600 mg
# Experimental: As an exploratory analysis, levels of inflammation biomarkers MCP-1, sCD14, high sensitivity C-reactive protein [hs-CRP], interleukin-6 [IL-6], D-dimer, and fibrinogen) were measured. Baseline values and changes from baseline at Week 24 and Week 48 of MCP-1, sCD14, hs-CRP, IL-6, D-dimer, and fibrinogen are summarized in Table 22.
# The sCD14 samples were originally analyzed in 2 separate batches: Batch 1 included samples leading up to the Week 24 primary analysis and Batch 2 included Week 32 and Week 48 (end of study) samples. A repeat analysis of archived samples all analyzed in one batch was conducted for consistency in analysis across time points. To control for the effects of covariates, a linear mixed-model repeated-measures analysis was conducted on the changes from baseline in sCD14 (analysis dated September 2013).
# [4] = Week 24, CVC pooled 100 and 200 mg, or EFV
# [5] = Week 48, CVC pooled 100 and 200 mg, or EFV
compound,measurement,setting,value
"CCCCOCCOc1ccc(-c2ccc3c(c2)C=C(C(=O)Nc2ccc([S@@+]([O-])Cc4cncn4CCC)cc2)CCCN3CC(C)C)cc1 [cenicriviroc mesylate, (S)-8-[4-(2-Butoxyethoxy)phenyl]-1-isobutyl-N-(4-{[(1-propyl-1H-imidazol-5-yl)methyl]sulfinyl}phenyl)-1,2,3,4-tetrahydro-1-benzazocine-5-carboxamide monomethanesulfonoate]",Solubility,[1]; aqueous solution at pH 3,sparingly soluble
same,Solubility,[1]; aqueous solution from pH 1 to 2,freely soluble
same,Solubility,[1]; aqueous solution from pH 4 to 13 and in water,practically insoluble
same,Solubility,[1]; in 99.5% ethanol,sparingly soluble
same,Solubility,"[1]; in acetonitrile, 1-octanol, tetrahydrofuran",slightly soluble
same,Solubility,[1]; in ethyl acetate and diethylether,practically insoluble
same,Solubility,"[1]; in glacial acetic acid, methanol, benzyl alcohol, dimethylsulfoxide, N,N-dimethylformamide",freely soluble
same,Solubility,[1]; in pyridine and acetic anhydride,soluble
"O=C1Nc2ccc(Cl)cc2[C@@](C#CC2CC2)(C(F)(F)F)O1 [EFV, efavirenz, reference compound]",Subjects with decrease in FIB-4 score by one category,"[2]; EFV arm, all subjects <1.45 at baseline",no subject treated with EFV decreased in FIB-4 score by one category
same,Subjects in APRI category <0.5,[2]; [4],100%
same,Subjects in FIB-4 category <1.45,[2]; [4],100%
same,Subjects with APRI decreased 1 category from baseline,[2]; [4],5%
same,Subjects in APRI category <0.5,[2]; [5],100%
same,Subjects in FIB-4 category 1.45-3.25,[2]; [5],6%
same,Subjects in FIB-4 category <1.45,[2]; [5],94%
same,Subjects with APRI decreased 1 category from baseline,[2]; [5],6%
same,"sCD14 (original values) change from baseline, mean",[3]; Week 12,90000 pg/mL
same,"sCD14 (original values) change from baseline, median",[3]; Week 12,180000 pg/mL
same,"D-dimer change from baseline, mean",[3]; Week 24,-53 ng/mL
same,"D-dimer change from baseline, median",[3]; Week 24,-26 ng/mL
same,"Fibrinogen change from baseline, mean",[3]; Week 24,-28 mg/dL
same,"Fibrinogen change from baseline, median",[3]; Week 24,-31 mg/dL
same,"IL-6 change from baseline, mean",[3]; Week 24,-8.72 pg/mL
same,"IL-6 change from baseline, median",[3]; Week 24,0.00 pg/mL
same,"MCP-1 change from baseline, mean",[3]; Week 24,-44 pg/mL
same,"MCP-1 change from baseline, median",[3]; Week 24,-17 pg/mL
same,"hs-CRP change from baseline, mean",[3]; Week 24,-0.46 mg/dL
same,"hs-CRP change from baseline, median",[3]; Week 24,-0.01 mg/dL
same,"sCD14 (original values) change from baseline, mean",[3]; Week 24,230000 pg/mL
same,"sCD14 (original values) change from baseline, median",[3]; Week 24,130000 pg/mL
same,"sCD14 (original values) change from baseline, mean",[3]; Week 32,480000 pg/mL
same,"sCD14 (original values) change from baseline, median",[3]; Week 32,170000 pg/mL
same,"D-dimer change from baseline, mean",[3]; Week 48,-34 ng/mL
same,"D-dimer change from baseline, median",[3]; Week 48,0.0 ng/mL
same,"Fibrinogen change from baseline, mean",[3]; Week 48,-30 mg/dL
same,"Fibrinogen change from baseline, median",[3]; Week 48,-22 mg/dL
same,"IL-6 change from baseline, mean",[3]; Week 48,-13.11 pg/mL
same,"IL-6 change from baseline, median",[3]; Week 48,0.00 pg/mL
same,"MCP-1 change from baseline, mean",[3]; Week 48,4.2 pg/mL
same,"MCP-1 change from baseline, median",[3]; Week 48,33.6 pg/mL
same,"hs-CRP change from baseline, mean",[3]; Week 48,-0.71 mg/dL
same,"hs-CRP change from baseline, median",[3]; Week 48,-0.03 mg/dL
same,"sCD14 (original values) change from baseline, median",[3]; Week 48,460000 pg/mL
